According to patent US7300934B2, “Benzamide nitriles” (Roche Palo Alto LLC, priority 2003, dated 2007):

melting point: 156 to 158.9 °C
Structure (SMILES): CC(C)C[C@@H](C#N)NC(=O)[C@@H]1CCCC[C@@H]1NC(=O)c1ccc(-n2cncn2)cc1 [Compound 32, N-[(1S,2R)-2-({[(1S)-1-cyano-3-methylbutyl]amino}carbonyl)cyclohexyl]-4-(1H-1,2,4-triazol-1-yl)benzamide]
